Data as given in PMC5526998, “Structural analysis of the regulatory mechanism of MarR protein Rv2887 in M. tuberculosis” (Scientific Reports, 2017).

Biological target: Rv2887 (Mycobacterium tuberculosis, UniProt P9WME9)
Assay: biochemical

Rv2887, sequence (P9WME9 whole entry): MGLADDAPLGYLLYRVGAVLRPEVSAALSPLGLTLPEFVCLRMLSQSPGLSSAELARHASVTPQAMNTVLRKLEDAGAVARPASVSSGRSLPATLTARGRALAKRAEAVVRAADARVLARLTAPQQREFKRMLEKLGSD

SMILES | Kd
Nc1ccc(C(=O)O)c(O)c1 [PAS] | 183 µM
Cc1ccc(C)c(OCCCC(C)(C)C(=O)O)c1 [gemfibrozil] | 7.94 µM
